Results reported in patent publication US10183062B2, “Treatment for cancer” (The University of Nottingham, priority 2013, dated 2019).
Where two headings read alike, the source gives them in different places.

Assays:
HCT116 tumours = test: Mouse xenograft tumour growth delay with CB1954; assay type: in vivo, NMRI nu/nu mice (human colorectal HCT116 carcinoma)
Procedure: Human colorectal HCT116 carcinoma cells were grown in DMEM medium supplemented with 10% FBS, trypsinized and injected subcutaneously in 100 μl PBS/ . . . % matrigel at a concentration of 5.10^6 cells in the abdominal flank of adult NMRI nu/nu mice. As soon as tumours were palpable, tumour volumes were determined three times per week by measuring three orthogonal diameters using calipers. Volumes were calculated according to the formula V=A×B×C×/6. All experiments were conducted in accordance with local institutional guidelines of the University of Leuven, approved by the animal ethics committee and procedures were according to the guidelines defined by the UKCCCR (12). Treatment was initiated when tumours reached a volume of ˜250 mm^3. Five days post spore injection (5.10^7 cfu/100 μl), sham or prodrug treatment was started. CB1954 was prepared as described previously (13) and administered intraperitoneally (i.p.) at a concentration of 15 mg/kg for five consecutive days. At the end of the follow-up period, tumours and normal tissues were excised, ground and serially diluted to determine colonization levels (14). Tumour growth delay was determined for each individual tumour within the different groups as the time necessary to reach three times their initial volume at the start of the treatment. One-way ANOVA with a Tukey's posttest was used to determine statistical significance between the different growth curves.
Since strains E1 and N1 express stably-integrated NTR under the regulatory control of a strong promoter without inclusion of any antibiotic resistance gene, it was next determined whether administration of these clinically-applicable strains in combination with prodrug administration to tumour-bearing animals would result in anti-tumour efficacy. It was first evaluated whether inactivation of pyrE affected the tumour-colonizing capacity of systemically administered spores. Mice bearing subcutaneously transplanted HCT116 tumours were injected and tumour colonization tested seven days later. […] On average 10^9 cfu were found per gram of tumour tissue. Colonization was also confirmed by gram staining. In tumours, C. sporogenes vegetative cells are visible as purple, gram-positive rods (FIG. 3 C). As expected, C. sporogenes vegetative cells could not be detected in any of the normal tissues investigated. […] Spores were collected, quantified and intravenously administered at a concentration of 5.10×10^7 per animal when tumours reached a volume of ˜250 mm^3, followed five days later by sham or prodrug administration. […] In all cases, strain specific signals could be detected thereby confirming stability of the integrated construct.

[1] = system: E. coli NfnB nitroreductase, wild type; conditions: Knox et al., 1992, cited from earlier work
[2] = system: E. coli NfsA nitroreductase; conditions: Vass et al., 2009, cited from earlier work; for Km: read-out: Km^CB1954
[3] = system: BliNTR, NTR from Bacillus licheniformis; conditions: Emptage et al., 2009, cited from earlier work
[4] = cited from earlier work

NC(=O)c1cc(N2CC2)c([N+](=O)[O-])cc1[N+](=O)[O-] [CB1954, 5-(aziridin-1-yl)-2,4-dinitrobenzamide]
tumours completely disappeared, E1/CB1954 group (HCT116 tumours; CB1954 15 mg/kg i.p. x 5 days + E1 (E. coli NfnB) spores): two out of 16 | tumours completely disappeared, N1/CB1954 group (HCT116 tumours; CB1954 15 mg/kg i.p. x 5 days + N1 (NmeNTR) spores): four out of 16 | tumour growth delay, pyrE mutant spores alone or with CB1954 (HCT116 tumours; CB1954 15 mg/kg i.p. x 5 days, pyrE mutant spores): small growth delay | tumour growth delay, E1 or N1 with CB1954 (HCT116 tumours; CB1954 15 mg/kg i.p. x 5 days, E1 (NfnB) or N1 (NmeNTR) C. sporogenes spores, most pronounced for N1 (p<0.001, one way ANOVA)): significant growth delay | Kcat ([1]; CB1954): 6 S^−1 | Km ([1]; read-out: Km^CB1954): 862 µM | Kcat ([2]; CB1954, cofactor NADH): 2.60 (NADH) S^−1 | Kcat ([2]; CB1954, cofactor NADPH): 20.9 (NADPH) S^−1 | Km ([2]; cofactor NADH): 18 µM | Km ([2]; cofactor NADPH): 140 µM | Kcat ([3]; CB1954): 6.4 S^−1 | Km ([3]; read-out: Km^CB1954): 30 µM | maximum concentration which can be safely achieved in patient serum ([4]; in vivo): 6.3 µM | peak concentrations in patient sera ([4]; safe doses): 1 to 10 µM
